Measurements reported in ChEMBL document CHEMBL5543125, “Discovery of 2,3-Dihydro[1,4]dioxino[2,3-g]benzofuran Derivatives as Protease Activated Receptor 4 (PAR4) Antagonists with Potent Antiplatelet Aggregation Activity and Low Bleeding Tendency” (J Med Chem, 2024).
Calls of active or inactive are those of the source. The calls are words filed in the database; no cut-off is given here.

Assays:
Plasma [1] = assay: Ex vivo antiplatelet aggregation activity in ICR mouse […] assessed as inhibition of ADP induced platelet aggregation at 6 mg/kg, po measured after 2 hrs by light transmission aggregometry; assay type: functional, organism-based
Plasma [2] = assay: Ex vivo antiplatelet aggregation activity in ICR mouse […] assessed as inhibition of PAR4-activated peptide AYPGFK-NH2 induced platelet aggregation at 6 mg/kg, po measured after 2 hrs by light transmission aggregometry; assay type: functional, organism-based
[3] = Metabolic stability in human liver microsomes assessed as half life at 1 uM preincubated for 1 hr followed by NADPH addition and measured upto 60 mins by LC-MS/MS analysis; assay type: ADME, Microsome; conditions: time < 120 min
Platelet [4] = assay: Inhibition of platelet aggregation in human platelet rich plasma preincubated for 5 mins followed by aggregation inducer addition and measured after 5 mins by light transmission aggregometry; assay type: functional, cell-based
Platelet [5] = assay: Inhibition of platelet aggregation in human platelet rich plasma at 20 uM preincubated for 5 mins followed by aggregation inducer addition and measured after 5 mins by light transmission aggregometry relative to control; assay type: functional; conditions: 10 min
[6] = target: T1, Proteinase-activated receptor 4 (Mus musculus) (UniProt O88634); assay: Antagonist activity at PAR4 in ICR mouse plasma assessed as inhibition of PAR4-activated peptide AYPGPK-NH2 induced platelet aggregation at 100 to 1000 nM preincubated for 5 mins followed by aggregation inducer addition and measured after 5 mins by light transmission aggregometry; assay type: cell-free; conditions: filed as antagonist, dose 100-1000 nM, time 10.0 min
T1 sequence (whole entry): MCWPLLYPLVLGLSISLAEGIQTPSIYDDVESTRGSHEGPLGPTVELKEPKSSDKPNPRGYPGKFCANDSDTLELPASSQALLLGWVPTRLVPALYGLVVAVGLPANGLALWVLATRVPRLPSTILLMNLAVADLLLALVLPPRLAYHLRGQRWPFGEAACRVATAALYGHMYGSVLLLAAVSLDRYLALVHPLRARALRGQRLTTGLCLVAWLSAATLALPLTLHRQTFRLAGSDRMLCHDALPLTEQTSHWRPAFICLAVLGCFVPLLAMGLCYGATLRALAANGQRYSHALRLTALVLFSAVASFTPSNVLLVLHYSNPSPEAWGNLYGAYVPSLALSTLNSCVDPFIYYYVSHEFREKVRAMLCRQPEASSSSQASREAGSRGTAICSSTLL

Platelet [7] = assay: Antiplatelet aggregation activity in ICR mouse plasma assessed as inhibition of thrombin induced platelet aggregation upto 1 uM preincubated for 5 mins followed by aggregation inducer addition and measured after 5 mins by light transmission aggregometry; assay type: functional, cell-based; conditions: time 10.0 min
[8] = target: T2, Platelet glycoprotein VI (Mus musculus) (UniProt P0C191); assay: Antagonist activity at GPVI in ICR mouse plasma assessed as inhibition of collagen induced platelet aggregation upto 1 uM preincubated for 5 mins followed by aggregation inducer addition and measured after 5 mins by light transmission aggregometry; assay type: cell-free; conditions: time 10.0 min
T2 sequence (whole entry): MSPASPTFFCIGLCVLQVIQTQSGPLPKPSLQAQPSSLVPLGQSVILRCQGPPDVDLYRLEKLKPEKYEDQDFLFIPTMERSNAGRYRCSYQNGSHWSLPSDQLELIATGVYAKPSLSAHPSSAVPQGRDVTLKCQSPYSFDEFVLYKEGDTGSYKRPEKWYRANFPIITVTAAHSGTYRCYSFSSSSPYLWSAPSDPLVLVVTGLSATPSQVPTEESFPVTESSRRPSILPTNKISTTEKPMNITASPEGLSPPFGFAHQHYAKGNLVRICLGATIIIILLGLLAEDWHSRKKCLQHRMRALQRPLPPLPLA

Platelet [9] = assay: Antagonist activity at P2Y1/P2Y12 in ICR mouse plasma assessed as inhibition of ADP induced platelet aggregation upto 1 uM preincubated for 5 mins followed by aggregation inducer addition and measured after 5 mins by light transmission aggregometry; assay type: cell-free; conditions: time 10.0 min
[10] = target: T3, Thromboxane A2 receptor (Mus musculus) (UniProt P30987); assay: Antagonist activity at thromboxane A2 receptor in ICR mouse plasma assessed as inhibition of U46619 induced platelet aggregation upto 1 uM preincubated for 5 mins followed by aggregation inducer addition and measured after 5 mins by light transmission aggregometry; assay type: functional, cell-free; conditions: time 10.0 min
T3 sequence (whole entry): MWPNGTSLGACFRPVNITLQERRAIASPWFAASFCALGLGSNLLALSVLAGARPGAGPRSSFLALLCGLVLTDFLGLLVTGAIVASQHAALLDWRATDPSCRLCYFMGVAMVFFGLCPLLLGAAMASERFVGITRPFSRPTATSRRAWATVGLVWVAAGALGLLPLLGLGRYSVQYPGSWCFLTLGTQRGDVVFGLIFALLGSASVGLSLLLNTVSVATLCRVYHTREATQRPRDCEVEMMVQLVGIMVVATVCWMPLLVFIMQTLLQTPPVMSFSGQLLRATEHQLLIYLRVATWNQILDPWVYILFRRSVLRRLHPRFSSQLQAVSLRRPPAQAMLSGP

Platelet [11] = assay: Antiplatelet aggregation activity in ICR mouse plasma assessed as inhibition of thrombin induced platelet aggregation upto 8 uM preincubated for 5 mins followed by aggregation inducer addition and measured after 5 mins by light transmission aggregometry; assay type: functional, cell-based; conditions: time 10.0 min
[12] = target: T2, Platelet glycoprotein VI (Mus musculus); assay: Antagonist activity at GPVI in ICR mouse plasma assessed as inhibition of collagen induced platelet aggregation upto 8 uM preincubated for 5 mins followed by aggregation inducer addition and measured after 5 mins by light transmission aggregometry; assay type: cell-free; conditions: time 10.0 min
Platelet [13] = assay: Antagonist activity at P2Y1/P2Y12 in ICR mouse plasma assessed as inhibition of ADP induced platelet aggregation upto 8 uM preincubated for 5 mins followed by aggregation inducer addition and measured after 5 mins by light transmission aggregometry; assay type: cell-free; conditions: time 10.0 min
[14] = target: T3, Thromboxane A2 receptor (Mus musculus); assay: Antagonist activity at thromboxane A2 receptor in ICR mouse plasma assessed as inhibition of U46619 induced platelet aggregation upto 8 uM preincubated for 5 mins followed by aggregation inducer addition and measured after 5 mins by light transmission aggregometry; assay type: functional, cell-free; conditions: time 10.0 min
Plasma [15] = assay: Anticoagulation activity in ICR mouse platelet poor plasma assessed as elongation of aPTT upto 20 uM incubated for 3 mins; assay type: functional, cell-free
Plasma [16] = assay: Anticoagulation activity in ICR mouse platelet poor plasma assessed as elongation of prothrombin time upto 20 uM incubated for 3 mins; assay type: functional, cell-free
[17] = Terminal elimination half life in ICR mouse at 2 mg/kg, iv measured upto 24 hrs by LC-MS/MS analysis; assay type: ADME, organism-based; conditions: in vivo, read-out: beta t1/2 (converted)
[18] = AUC (0 to t) in ICR mouse at 2 mg/kg, iv measured upto 24 hrs by LC-MS/MS analysis; assay type: ADME, organism-based; conditions: in vivo
[19] = Clearance in ICR mouse at 2 mg/kg, iv measured upto 24 hrs by LC-MS/MS analysis; assay type: ADME, organism-based; conditions: in vivo
[20] = Terminal elimination half life in ICR mouse at 12 mg/kg, po measured upto 24 hrs by LC-MS/MS analysis; assay type: ADME, organism-based; conditions: in vivo, read-out: beta t1/2 (converted)
[21] = Tmax in ICR mouse at 12 mg/kg, po measured upto 24 hrs by LC-MS/MS analysis; assay type: ADME, organism-based; conditions: in vivo
[22] = Cmax in ICR mouse at 12 mg/kg, po measured upto 24 hrs by LC-MS/MS analysis; assay type: ADME, organism-based; conditions: in vivo
[23] = AUC (0 to t) in ICR mouse at 12 mg/kg, po measured upto 24 hrs by LC-MS/MS analysis; assay type: ADME, organism-based; conditions: in vivo
[24] = Oral bioavailability in ICR mouse at 12 mg/kg measured upto 24 hrs by LC-MS/MS analysis; assay type: ADME, organism-based; conditions: in vivo
[25] = target: Voltage-gated inwardly rectifying potassium channel KCNH2 (Homo sapiens, UniProt Q12809); assay: Inhibition of hERG expressed in HEK293 cells by whole cell patch clamp assay; assay type: toxicity, cell-based
Voltage-gated inwardly rectifying potassium channel KCNH2, sequence (Q12809 whole entry): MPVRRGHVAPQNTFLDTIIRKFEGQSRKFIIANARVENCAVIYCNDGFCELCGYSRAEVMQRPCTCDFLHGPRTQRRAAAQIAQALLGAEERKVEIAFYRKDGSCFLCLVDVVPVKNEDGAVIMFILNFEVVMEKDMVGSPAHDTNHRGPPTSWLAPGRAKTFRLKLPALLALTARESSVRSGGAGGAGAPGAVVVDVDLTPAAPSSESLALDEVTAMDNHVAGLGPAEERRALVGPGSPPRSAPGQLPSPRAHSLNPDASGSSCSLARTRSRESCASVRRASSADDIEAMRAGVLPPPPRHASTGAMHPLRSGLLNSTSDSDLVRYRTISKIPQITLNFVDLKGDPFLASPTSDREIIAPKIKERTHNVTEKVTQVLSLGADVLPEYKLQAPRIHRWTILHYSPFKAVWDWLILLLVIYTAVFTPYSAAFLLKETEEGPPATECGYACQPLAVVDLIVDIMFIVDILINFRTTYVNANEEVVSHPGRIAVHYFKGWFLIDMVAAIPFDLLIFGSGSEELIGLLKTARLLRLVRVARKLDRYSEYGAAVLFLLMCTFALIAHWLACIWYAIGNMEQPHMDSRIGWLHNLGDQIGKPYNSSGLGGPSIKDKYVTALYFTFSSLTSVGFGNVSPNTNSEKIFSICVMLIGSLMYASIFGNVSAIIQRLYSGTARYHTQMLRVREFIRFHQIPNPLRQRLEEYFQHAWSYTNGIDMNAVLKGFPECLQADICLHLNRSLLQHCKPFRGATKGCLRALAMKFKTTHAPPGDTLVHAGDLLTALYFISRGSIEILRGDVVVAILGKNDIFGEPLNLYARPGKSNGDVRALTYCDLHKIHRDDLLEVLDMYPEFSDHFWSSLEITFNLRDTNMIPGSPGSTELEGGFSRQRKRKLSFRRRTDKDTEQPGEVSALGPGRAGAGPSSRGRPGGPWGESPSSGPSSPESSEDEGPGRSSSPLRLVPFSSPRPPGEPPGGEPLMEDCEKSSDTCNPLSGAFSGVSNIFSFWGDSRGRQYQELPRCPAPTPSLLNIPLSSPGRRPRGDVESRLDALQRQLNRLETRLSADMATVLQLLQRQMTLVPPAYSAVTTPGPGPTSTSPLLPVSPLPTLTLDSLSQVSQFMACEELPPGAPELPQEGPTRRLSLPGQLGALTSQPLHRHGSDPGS

Plasma [26] = assay: Ex vivo antiplatelet aggregation activity in po dosed ICR mouse […] assessed as inhibition of ADP induced platelet aggregation measured after 2 hrs by light transmission aggregometry; assay type: functional, organism-based; conditions: dose 1-12 mg/kg
Plasma [27] = assay: Ex vivo antiplatelet aggregation activity in po dosed ICR mouse […] assessed as inhibition of PAR4-activated peptide AYPGFK-NH2 induced platelet aggregation measured after 2 hrs by light transmission aggregometry; assay type: functional, organism-based; conditions: dose 1-12 mg/kg
Plasma [28] = assay: Ex vivo antiplatelet aggregation activity in ICR mouse […] assessed as inhibition of ADP induced platelet aggregation at 6 to 12 mg/kg, po measured after 2 hrs by light transmission aggregometry relative to control; assay type: functional; conditions: dose 6-12 mg/kg
Plasma [29] = assay: Ex vivo antiplatelet aggregation activity in ICR mouse […] assessed as inhibition of PAR4-activated peptide AYPGFK-NH2 induced platelet aggregation at 6 to 12 mg/kg, po measured after 2 hrs by light transmission aggregometry relative to control; assay type: functional; conditions: dose 6-12 mg/kg
[30] = Toxicity in C57BL/6J mouse assessed as prolongation of bleeding time at 3 to 12 mg/kg, po administered via oral gavage and measured after 2 hrs; assay type: organism-based; conditions: in vivo, dose 3-12 mg/kg
[31] = target: T1, Proteinase-activated receptor 4 (Mus musculus); assay: Antagonist activity at PAR4 in ICR mouse plasma assessed as inhibition of PAR4-activated peptide AYPGPK-NH2 induced platelet aggregation at 200 to 1000 nM preincubated for 5 mins followed by aggregation inducer addition and measured after 5 mins by light transmission aggregometry; assay type: cell-free; conditions: filed as antagonist, dose 200-1000 nM, time 10.0 min
[32] = target: T4, Platelet glycoprotein VI (Homo sapiens) (UniProt Q9HCN6); assay: Antagonist activity at GPVI in human platelet rich plasma assessed as inhibition of collagen induced platelet aggregation at >=4 uM preincubated for 5 mins followed by aggregation inducer addition and measured after 5 mins by light transmission aggregometry; assay type: cell-free; conditions: filed as antagonist, time 10.0 min
T4 sequence (whole entry): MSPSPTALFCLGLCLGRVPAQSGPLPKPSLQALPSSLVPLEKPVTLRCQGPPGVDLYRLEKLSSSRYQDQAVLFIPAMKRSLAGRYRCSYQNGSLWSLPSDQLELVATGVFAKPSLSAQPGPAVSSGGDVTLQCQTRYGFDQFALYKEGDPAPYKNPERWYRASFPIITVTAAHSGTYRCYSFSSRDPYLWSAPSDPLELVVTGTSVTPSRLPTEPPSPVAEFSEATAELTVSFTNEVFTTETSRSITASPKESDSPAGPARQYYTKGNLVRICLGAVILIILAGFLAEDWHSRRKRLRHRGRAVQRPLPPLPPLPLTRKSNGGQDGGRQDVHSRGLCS

| SMILES | half-life at 1 µM [3] [min] | IC50 (Platelet [4]) [nM] | inhibition at 20 µM (Platelet [5]) [%] | Activity (Platelet [7]) | Activity [8] | Activity (Platelet [9]) | Activity [10] | Activity (Plasma [15]) | Activity (Plasma [16]) | half-life [17] [min] | AUC(0-t) at 24 h [18] [ng·h/mL] | clearance [19] [mL/min/kg] | half-life [20] [min] | Tmax [21] [h] | Cmax [22] [ng/mL] | AUC(0-t) at 24 h [23] [ng·h/mL] | bioavailability [24] [%] | IC50 [25] [µM] | Activity (Plasma [26]) | Activity (Plasma [27]) | other results |
| --- | --- | --- | --- | --- | --- | --- | --- | --- | --- | --- | --- | --- | --- | --- | --- | --- | --- | --- | --- | --- | --- |
| COc1nn2cc(-c3cc4ccccc4o3)nc2s1 |  |  |  |  |  |  |  |  |  |  |  |  |  |  |  |  |  |  |  |  | Activity (Plasma [1]): inactive; Activity (Plasma [2]): inactive |
| COc1nn2cc(-c3cc4ccc5c(c4o3)OCC(COc3ccc(F)cc3)O5)nc2s1 (stereo not given) | 42.5 | 14.2 | 87.2 | inactive | inactive | inactive | inactive | inactive | inactive | 2300 | 5390 | 3 | 1770 | 2 | 204 | 3040 | 9.61 | > 30 | Dose-Dependent Effect | Dose-Dependent Effect | Activity [6]: Active; Activity (Platelet [11]): inactive; Activity [12]: inactive; Activity (Platelet [13]): inactive; Activity [14]: inactive; inhibition (INH) (Plasma [28]): >90%; inhibition (INH) (Plasma [29]): >90%; Activity [30]: Non-Toxic |
| COc1nn2cc(-c3cc4ccc5c(c4o3)OC(COc3ccc(F)cc3)CO5)nc2s1 (stereo not given) | 97.6 | 26.1 | 85.9 | inactive | inactive | inactive | inactive | inactive | inactive | 678 | 1250 | 23.8 | 439 | 1.67 | 325 | 3460 | 45.1 | 21.6 | Dose-Dependent Effect | Dose-Dependent Effect | Activity [31]: Active; Activity [32]: Active; inhibition (INH) (Plasma [28]): >90%; inhibition (INH) (Plasma [29]): >90%; Activity [30]: Non-Toxic |
